The source of these data is patent US11773391B2, “Therapeutic and diagnostic target for SARS-CoV-2 and COVID-19” (priority 2020, dated 2023).

For this assay, the system named is NCOA7. Type of assay: cell-based, human. Particulars: ECs, FIGS. 3A-3B.

The structures appear in SMILES notation. Entries after “also recorded” stand apart in the source; their conditions may differ.

As for `N#CCNC(=O)c1ccc(-c2ccnc(Nc3ccc(N4CCOCC4)cc3)n2)cc1` [momelotinib, Momelotinib], the “NCOA7 expression (IL-1β-mediated upregulation of NCOA7)” value is “abrogated the IL-1β-mediated upregulation of NCOA7; also recorded: attenuates NCOA7 expression”.
